Results published in patent EP4624471A1, “PKMYT1 INHIBITOR, PREPARATION METHOD THEREFOR, AND PHARMACEUTICAL COMPOSITION AND USE THEREOF” (Shanghai Qilu Pharmaceutical Research and Development …, priority 2022, dated 2024).

The compounds below were run against T1, PKMYT1 enzyme (Homo sapiens, UniProt Q99640) (assay: PKMYT1 enzyme inhibition activity, ADP-GLO method). Settings: PKMYT1 enzyme 10 nM, ATP 5 µM, 37°C 90 minutes; read-out: ADP-GLO IC50.
T1 construct: purchased Thermo Scientific A33387
T1 sequence (Q99640 1-499): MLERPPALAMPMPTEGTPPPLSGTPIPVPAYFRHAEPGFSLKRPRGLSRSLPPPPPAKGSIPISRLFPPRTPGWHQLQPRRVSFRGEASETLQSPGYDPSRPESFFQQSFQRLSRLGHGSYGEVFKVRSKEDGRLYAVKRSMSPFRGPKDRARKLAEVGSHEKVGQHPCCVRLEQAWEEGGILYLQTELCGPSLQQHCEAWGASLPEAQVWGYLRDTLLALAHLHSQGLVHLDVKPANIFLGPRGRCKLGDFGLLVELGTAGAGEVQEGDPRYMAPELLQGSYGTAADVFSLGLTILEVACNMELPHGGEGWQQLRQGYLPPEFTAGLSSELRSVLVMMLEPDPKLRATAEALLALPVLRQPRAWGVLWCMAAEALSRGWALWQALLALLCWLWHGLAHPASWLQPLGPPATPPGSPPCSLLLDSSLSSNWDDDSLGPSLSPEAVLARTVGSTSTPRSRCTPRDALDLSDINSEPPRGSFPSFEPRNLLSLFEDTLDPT
Format: biochemical

Compound | IC50 [nM]
Cc1cc(F)c(O)c(C)c1-n1c(N)c(C(N)=O)c2cc(CC(F)(F)F)c(C)nc21 [Example 174] | 4.7
Cc1ccc(O)c(C)c1-n1c(N)c(C(N)=O)c2c3c(c(C)nc21)OCC3 [Example 187] | 43.5
Cc1ccc(O)c(C)c1-n1c(N)c(C(N)=O)c2cnc(-c3ccccc3)nc21 [Example 11, 6-Amino-7-(3-hydroxy-2,6-dimethylphenyl)-2-phenyl-7H-pyrrolo[2,3-d]pyrimidine-5-carboxamide] | 15.7
Cc1cc2c(C(N)=O)c(N)n(-c3c(C)c(C)cc(O)c3C)c2nc1C [Example 53, 2-Amino-1-(3-hydroxy-2,5,6-trimethylphenyl)-5,6-dimethyl-1H-pyrrolo[2,3-b]pyridine-3-carboxamide] | 194
Cc1nc(Cl)c2c(C(N)=O)c(N)n(-c3c(C)ccc(O)c3C)c2n1 [Example 28, 6-Amino-4-chloro-7-(3-hydroxy-2,6-dimethylphenyl)-2-methyl-7H-pyrrolo[2,3-d]pyrimidine-5-carboxamide] | 13.8
Cc1ccc(O)c(C)c1-n1c(N)c(C(N)=O)c2cnc(C3=CCOCC3)nc21 [Example 16, 6-Amino-2-(3,6-dihydro-2H-pyran-4-yl)-7-(3-hydroxy-2,6-dimethylphenyl)-7H-pyrrolo[2,3-d]pyrimidine-5-carboxamide] | 11.7
C=C(C)c1nc2c(cc1C)c(C(N)=O)c(N)n2-c1c(C)c(O)cc(F)c1C [Example 138] | 27
CCCN(CC)c1ncc2c(C(N)=O)c(N)n(-c3c(C)ccc(O)c3C)c2n1 [Example 83] | 41.8
Cc1cc(F)c(O)c(C)c1-n1c(N)c(C(N)=O)c2cc(N3CCCC3)c(C)nc21 (atropisomer, axis not shown) [Example 162.1] | 9.1
CCc1nc(C)nc2c1c(C(N)=O)c(N)n2-c1c(C)ccc(O)c1C (racemic) [Example 66] | 22.5
C=CCCc1cc2c(C(N)=O)c(N)n(-c3c(C)cc(F)c(O)c3C)c2nc1C [Example 157] | 60.6
Cc1cc(F)c(O)c(C)c1-n1c(N)c(C(N)=O)c2cc(C(F)F)c(C)nc21 [Example 204] | 18.9
[2H]C([2H])([2H])c1c(O)c(F)cc(C)c1-n1c(N)c(C(N)=O)c2cc(C(F)(F)F)c(C)nc21 (atropisomer, axis not shown) [Example 195.1] | 2.8
COC(C)(C)c1cnc2c(c1)c(C(N)=O)c(N)n2-c1c(C)cc(F)c(O)c1C [Example 146] | 35.2
Cc1cc2c(C(N)=O)c(N)n(-c3c(C)c(O)c(Cl)c(F)c3C)c2nc1C [Example 44, 2-Amino-1-(4-chloro-3-fluoro-5-hydroxy-2,6-dimethylphenyl)-5,6-dimethyl-1H-pyrrolo[2,3-b]pyridine-3-carboxamide] | 11.8
Cc1cc(F)c(O)c(C)c1-n1c(N)c(C(N)=O)c2cc(C(F)(F)F)cnc21 (racemic) [Example 154] | 13.9
Cc1ccc(O)c(C)c1-n1c(N)c(C(N)=O)c2cc3c(nc21)OCCO3 (racemic) [Example 188] | 10.5
Cc1ccc(O)c(C)c1-n1c(N)c(C(N)=O)c2cnc(-c3ccc(F)cc3)nc21 [Example 64] | 15.7
Cc1cc(F)c(O)c(C)c1-n1c(N)c(C(N)=O)c2c3c(c(C)nc21)CCC3 (racemic) [Example 176] | 9.81
Cc1ccc(O)c(C)c1-n1c(N)c(C(N)=O)c2cnc(NC3CCCC3)nc21 [Example 76] | 4.02
C=C(C)c1nc2c(cc1C)c(C(N)=O)c(N)n2-c1c(C)cc(F)c(O)c1C [Example 152] | 47.9
Cc1cc(F)c(O)c(C)c1-n1c(N)c(C(N)=O)c2cc3c(nc21)CCCC3 (atropisomer, axis not shown) [Example 177.2] | 8.15
Cc1ccc(O)c(C)c1-n1c(N)c(C(N)=O)c2cnc(C3CCOCC3)nc21 [Example 18, 6-Amino-7-(3-hydroxy-2,6-dimethylphenyl)-2-(tetrahydro-2H-pyran-4-yl)-7H-pyrrolo[2,3-d]pyrimidine-5-carboxamide] | 18.3
Cc1c(O)cc(F)c(C)c1-n1c(N)c(C(N)=O)c2cc(N3CCOCC3)cnc21 [Example 117] | 192
Cc1cc(F)c(O)c(C)c1-n1c(N)c(C(N)=O)c2cc(N3CCC3)c(C)nc21 (racemic) [Example 173] | 7.68
CCc1cnc2c(c1)c(C(N)=O)c(N)n2-c1c(C)cc(F)c(O)c1C [Example 140] | 7.73

Compound | IC50 [nM]
Cc1ccc(O)c(C)c1-n1c(N)c(C(N)=O)c2cnc(Nc3ccccc3)nc21 [Example 33, 6-Amino-7-(3-hydroxy-2,6-dimethylphenyl)-2-(phenylamino)-7H-pyrrolo[2,3-d]pyrimidine-5-carboxamide] | 11.3
Cc1ccc(O)c(C)c1-n1c(N)c(C(N)=O)c2cnc(C3CCC(F)(F)CC3)nc21 [Example 88] | 16
Cc1ccc(O)c(C)c1-n1c(N)c(C(N)=O)c2cnccc21 [Example 30, 2-Amino-1-(3-hydroxy-2,6-dimethylphenyl)-1H-pyrrolo[3,2-c]pyridine-3-carboxamide] | 13.7
COc1cc2c(C(N)=O)c(N)n(-c3c(C)cc(F)c(O)c3C)c2nc1C (atropisomer, axis not shown) [Example 158.1] | 7.5
Cc1ccc(O)c(C)c1-n1c(N)c(C(N)=O)c2cnc(C3CCCCC3)nc21 [Example 10, 6-Amino-2-cyclohexyl-7-(3-hydroxy-2,6-dimethylphenyl)-7H-pyrrolo[2,3-d]pyrimidine-5-carboxamide] | 13
Cc1cc2c(C(N)=O)c(N)n(-c3c(C)c(O)cc(F)c3C)c2c(F)c1C [Example 70] | 34
Cc1cc(F)c(O)c(C)c1-n1c(N)c(C(N)=O)c2c3c(cnc21)CCC3 (atropisomer, axis not shown) [Example 186.2] | 3.91
Cc1c(O)cc(F)c(C)c1-n1c(N)c(C(N)=O)c2c(C)c3c(nc21)CCC3 [Example 182] | 85.7
Cc1cc(F)c(O)c(C)c1-n1c(N)c(C(N)=O)c2cc(C(C)(C)O)c(C)nc21 (atropisomer, axis not shown) [Example 172.1] | 4.6
CCc1ccc(O)c(CC)c1-n1c(N)c(C(N)=O)c2cnc(C)nc21 [Example 32, 6-Amino-7-(2,6-diethyl-3-hydroxyphenyl)-2-methyl-7H-pyrrolo[2,3-d]pyrimidine-5-carboxamide] | 263
Cc1cc(F)c(O)c(C)c1-n1c(N)c(C(N)=O)c2cc(Cl)c(C)nc21 (atropisomer, axis not shown) [Example 60.2] | 1.88
CCCc1ncc2c(C(N)=O)c(N)n(-c3c(C)ccc(O)c3C)c2n1 [Example 87] | 3.35
Cc1cc2c(cn1)c(C(N)=O)c(N)n2-c1c(C)ccc(O)c1C [Example 31, 2-Amino-1-(3-hydroxy-2,6-dimethylphenyl)-6-methyl-1H-pyrrolo[3,2-c]pyridine-3-carboxamide] | 11.1
Cc1cc2c(C(N)=O)c(N)n(-c3c(C)cc(F)c(O)c3C)c2nc1Cl [Example 74] | 7.11
Cc1cc2c(C(N)=O)c(N)n(-c3c(C)cnc(O)c3C)c2nc1C [Example 50, 2-Amino-1-(2-hydroxy-3,5-dimethylpyridin-4-yl)-5,6-dimethyl-1H-pyrrolo[2,3-b]pyridine-3-carboxamide] | 220
Cc1ncc2c(C(N)=O)c(N)n(-c3c(C)cc(F)c(O)c3C)c2n1 [Example 65] | 23.8
[2H]C([2H])([2H])c1cc(F)c(O)c(C([2H])([2H])[2H])c1-n1c(N)c(C(N)=O)c2cc(C(F)(F)F)c(C)nc21 [Example 193] | 7.94
Cc1cc(F)c(O)c(C)c1-n1c(N)c(C(N)=O)c2cc(C3CC3)cnc21 (single isomer, unassigned) [Example 144.1] | 2.08
CCc1ncc2c(C(N)=O)c(N)n(-c3c(C)ccc(O)c3C)c2n1 [Example 8, 6-Amino-2-ethyl-7-(3-hydroxy-2,6-dimethylphenyl)-7H-pyrrolo[2,3-d]pyrimidine-5-carboxamide] | 10.5
Cc1nc2c(cc1C(=O)O)c(C(N)=O)c(N)n2-c1c(C)c(O)cc(F)c1C [Example 90] | 90.7
Cc1ccc(O)c(C)c1-n1c(N)c(C(N)=O)c2cc3c(nc21)OC(F)(F)O3 [Example 178] | 15.5
Cc1cc(F)c(O)c(C)c1-n1c(N)c(C(N)=O)c2cc(OC(C)C)c(C)nc21 [Example 160] | 7.85
Cc1cc2c(C(N)=O)c(N)n(-c3c(C)cc(Br)c(O)c3C)c2nc1C [Example 97] | 187
Cc1ccc(O)c(C)c1-n1c(N)c(C(N)=O)c2cnc(C(F)(F)F)nc21 [Example 4, 6-Amino-7-(3-hydroxy-2,6-dimethylphenyl)-2-(trifluoromethyl)-7H-pyrrolo[2,3-d]pyrimidine-5-carboxamide] | 25.4
Cc1ccc(O)c(C)c1-n1c(N)c(C(N)=O)c2cnc(C3=CCCCC3)nc21 [Example 9, 6-Amino-2-(cyclohex-1-en-1-yl)-7-(3-hydroxy-2,6-dimethylphenyl)-7H-pyrrolo[2,3-d]pyrimidine-5-carboxamide] | 9.05

Same assay, conditions: read-out: ADP-GLO IC50; PKMYT1 enzyme 10 nM, ATP 5 µM, 37°C 90 minutes

IC50 [nM] | Compound
8.23 | Cc1ccc(O)c(C)c1-n1c(N)c(C(N)=O)c2cnc(/C=C/C3CC3)nc21 [Example 78]
4.93 | Cc1ccc(O)c(C)c1-n1c(N)c(C(N)=O)c2cc3c(nc21)CCO3 (racemic) [Example 190]
2.22 | Cc1ccc(O)c(C)c1-n1c(N)c(C(N)=O)c2cc3c(nc21)CCO3 (atropisomer, axis not shown) [Example 190.2]
